Experimental data reported in publication PMC4548311 (Journal of Biomolecular Structure & Dynamics, 2014).

Assays:
[1] = target: monomeric wt NP (nucleoprotein of influenza A virus) (Influenza A virus, UniProt P15682); assay: biochemical; format: binding
wt NP [2] = target: wt NP (Influenza A virus, UniProt P15682); format: biochemical
wt NP [3] = format: biochemical
influenza A virus = settings: mouse, in vivo; cited from earlier work

wt NP (Influenza A virus, UniProt P15682), sequence (P15682 whole entry, looked up): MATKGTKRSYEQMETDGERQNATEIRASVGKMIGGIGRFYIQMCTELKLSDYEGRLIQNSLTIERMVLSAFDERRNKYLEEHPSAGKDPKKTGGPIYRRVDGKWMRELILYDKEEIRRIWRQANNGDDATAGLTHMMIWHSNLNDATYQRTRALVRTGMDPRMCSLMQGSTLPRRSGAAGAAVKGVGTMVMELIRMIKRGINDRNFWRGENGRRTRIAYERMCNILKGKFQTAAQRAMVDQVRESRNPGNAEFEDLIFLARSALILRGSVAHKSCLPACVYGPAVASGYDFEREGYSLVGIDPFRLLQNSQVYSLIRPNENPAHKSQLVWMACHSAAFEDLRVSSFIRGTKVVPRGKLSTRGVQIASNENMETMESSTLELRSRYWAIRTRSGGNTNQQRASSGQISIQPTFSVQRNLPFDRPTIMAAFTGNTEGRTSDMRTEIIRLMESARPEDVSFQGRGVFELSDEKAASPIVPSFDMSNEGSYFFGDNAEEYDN
monomeric wt NP (nucleoprotein of influenza A virus), sequence (P15682 whole entry, looked up): as above

## COc1ccc2cc([C@H](C)C(=O)O)ccc2c1 [Naproxen, naproxen]
[1]
  % Total inhibition: 70 ± 7%
[1]; read-out: % Inhibition at 1 µM
  inhibition at 1 µM: 5%
Wt NP [2]
  apparent size of the NP–RNA complex: 21–23 nm
  effect on NP oligomerization into trimers–tetramers: stabilized the monomeric form
  effect on RNA-free self-association of NP: stabilized monomeric NP and avoided trimers/tetramers formation
  effect on dimer formation: impeded dimer formation
Wt NP [3]
  disruption of already assembled trimers: could not disrupt already assembled trimers
Influenza A virus
  antiviral effects in mice: antiviral effects
  lung bleeding: reduced lung bleeding
